Results reported in US7851410B2, “Herbicidal composition” (FMC Corporation, priority 2006, dated 2010).

Legend:
Type in all cases: in vivo
Spurge = assay: Pre-emergent herbicidal evaluation on Spurge (field plots, granular fertilizer compositions)
Experimental: Test compositions were prepared of i) a granular fertilizer and 2,4-dinitro-N^3,N^3-dipropyl-6-(trifluoromethyl)-1,3-benzenediamine, and ii) a granular fertilizer and N-[2,4-dichloro-5-[4-(difluoromethyl)-4,5-dihydro-3-methyl-5-oxo-1H-1,2,4-triazol-1-yl]phenyl]methanesulfonamide. The test compositions were prepared to provide the desired application rates of 2,4-dinitro-N^3,N^3-dipropyl-6-(trifluoromethyl)-1,3-benzenediamine and N-[2,4-dichloro-5-[4-(difluoromethyl)-4,5-dihydro-3-methyl-5-oxo-1H-1,2,4-triazol-1-yl]phenyl]methanesulfonamide. In addition, test compositions were prepared containing mixtures of 2,4-dinitro-N^3,N^3-dipropyl-6-(trifluoromethyl)-1,3-benzenediamine and N-[2,4-dichloro-5-[4-(difluoromethyl)-4,5-dihydro-3-methyl-5-oxo-1H-1,2,4-triazol-1-yl]phenyl]methanesulfonamide with granular fertilizer that provided the specified rates of the two herbicides.
The experimental design used randomized plots with one pre-emergent treatment either the day of planting or the day after planting and three to four replications per test trial. The size of each experimental plot was 6 feet by 30 feet.
Percent control of the weed (Spurge) was evaluated and averaged in each experimental plot at 70 days after treatment (DAT) of each test rate.
(§1) The results, shown as an average of the replications, were compared with results observed in untreated control plots in the same trials.

Barnyard Grass = assay: Pre-emergent herbicidal evaluation on Barnyard Grass (field plots, spray)
Experimental: (§2) Test compositions were prepared by dilution of a 65% water-soluble granule (65 WG) formulation of 2,4-dinitro-N^3,N^3-dipropyl-6-(trifluoromethyl)-1,3-benzenediamine in a spray tank that provided the appropriate application rate of 2,4-dinitro-N^3,N^3-dipropyl-6-(trifluoromethyl)-1,3-benzenediamine. Test compositions were also prepared by dilution of a 80% wettable powder (80 WP) formulation of N-[2,4-dichloro-5-[4-(difluoromethyl)-4,5-dihydro-3-methyl-5-oxo-1H-1,2,4-triazol-1-yl]phenyl]methanesulfonamide in a spray tank that provided the appropriate application rate of N-[2,4-dichloro-5-[4-(difluoromethyl)-4,5-dihydro-3-methyl-5-oxo-1H-1,2,4-triazol-1-yl]phenyl]methanesulfonamide. In addition, test compositions were prepared containing mixtures of a 65% water-soluble granule (65 WG) formulation of 2,4-dinitro-N^3,N^3-dipropyl-6-(trifluoromethyl)-1,3-benzenediamine and a 80% wettable powder (80 WP) formulation of N-[2,4-dichloro-5-[4-(difluoromethyl)-4,5-dihydro-3-methyl-5-oxo-1H-1,2,4-triazol-1-yl]phenyl]methanesulfonamide with water that provided the specified rates of the two herbicides.
(§3) The application of each test composition was performed with pressurized back-pack sprayers, calibrated to spray between 10 and 15 gallons per acre.
(§4) The experimental design used randomized plots with one pre-emergent treatment either the day of planting or the day after planting and four to eight replications per test trial. The size of each experimental plot was 6 feet by 30 feet.
Percent control of the weed (Barnyard Grass) was evaluated and averaged in each experimental plot at 14 days after treatment (DAT) of each test rate.
as §1

Annual Blue Grass = assay: Pre-emergent herbicidal evaluation on Annual Blue Grass (field plots, spray)
Experimental: as §2, §3, §4
Percent control of the weed (Annual Blue Grass) was evaluated and averaged in each experimental plot at 14 days after treatment (DAT) of each test rate.
as §1

Johnson Grass = assay: Pre-emergent herbicidal evaluation on Johnson Grass (field plots, spray)
Experimental: as §2, §3, §4
Percent control of the weed (Johnson Grass) was evaluated and averaged in each experimental plot at 14 days after treatment (DAT) of each test rate.
as §1

Green Foxtail = assay: Pre-emergent herbicidal evaluation on Green Foxtail (field plots, spray)
Experimental: as §2, §3, §4
Percent control of the weed (Green Foxtail) was evaluated and averaged in each experimental plot at 14 days after treatment (DAT) of each test rate.
as §1

Goose Grass = assay: Pre-emergent herbicidal evaluation on Goose Grass (field plots, spray)
Experimental: as §2, §3, §4
Percent control of the weed (Goose Grass) was evaluated and averaged in each experimental plot at 14 days after treatment (DAT) of each test rate.
as §1

Cc1nn(-c2cc(NS(C)(=O)=O)c(Cl)cc2Cl)c(=O)n1C(F)F [A, N-[2,4-dichloro-5-[4-(difluoromethyl)-4,5-dihydro-3-methyl-5-oxo-1H-1,2,4-triazol-1-yl]phenyl]methanesulfonamide]
Control @ 70 DAT (Spurge; 0.125 lb AI/Acre): 0% | Control @ 70 DAT (Spurge; 0.250 lb AI/Acre): 6% | Control @ 70 DAT (Spurge; 0.375 lb AI/Acre): 6% | Control @ 14 DAT (Barnyard Grass; 0.06 lb AI/Acre): 55% | Control @ 14 DAT (Barnyard Grass; 0.12 lb AI/Acre): 80% | Control @ 14 DAT (Barnyard Grass; 0.19 lb AI/Acre): 88% | Control @ 14 DAT (Barnyard Grass; 0.25 lb AI/Acre): 93% | Control @ 14 DAT (Annual Blue Grass; 0.06 lb AI/Acre): 37% | Control @ 14 DAT (Annual Blue Grass; 0.12 lb AI/Acre): 47% | Control @ 14 DAT (Annual Blue Grass; 0.19 lb AI/Acre): 62% | Control @ 14 DAT (Annual Blue Grass; 0.25 lb AI/Acre): 60% | Control @ 14 DAT (Johnson Grass; 0.06 lb AI/Acre): 42% | Control @ 14 DAT (Johnson Grass; 0.12 lb AI/Acre): 67% | Control @ 14 DAT (Johnson Grass; 0.19 lb AI/Acre): 65% | Control @ 14 DAT (Johnson Grass; 0.25 lb AI/Acre): 70% | Control @ 14 DAT (Green Foxtail; 0.06 lb AI/Acre): 62% | Control @ 14 DAT (Green Foxtail; 0.12 lb AI/Acre): 76% | Control @ 14 DAT (Green Foxtail; 0.19 lb AI/Acre): 93% | Control @ 14 DAT (Green Foxtail; 0.25 lb AI/Acre): 97% | Control @ 14 DAT (Goose Grass; 0.06 lb AI/Acre): 49% | Control @ 14 DAT (Goose Grass; 0.12 lb AI/Acre): 69% | Control @ 14 DAT (Goose Grass; 0.19 lb AI/Acre): 77% | Control @ 14 DAT (Goose Grass; 0.25 lb AI/Acre): 79%

CCCN(CCC)c1c([N+](=O)[O-])cc(C(F)(F)F)c(N)c1[N+](=O)[O-] [B, 2,4-dinitro-N^3,N^3-dipropyl-6-(trifluoromethyl)-1,3-benzenediamine]
Control @ 70 DAT (Spurge; 0.50 lb AI/Acre): 42% | Control @ 70 DAT (Spurge; 0.75 lb AI/Acre): 70% | Control @ 70 DAT (Spurge; 1.00 lb AI/Acre): 60% | Control @ 14 DAT (Barnyard Grass; 0.12 lb AI/Acre): 63% | Control @ 14 DAT (Barnyard Grass; 0.25 lb AI/Acre): 69% | Control @ 14 DAT (Barnyard Grass; 0.50 lb AI/Acre): 86% | Control @ 14 DAT (Annual Blue Grass; 0.12 lb AI/Acre): 45% | Control @ 14 DAT (Annual Blue Grass; 0.25 lb AI/Acre): 38% | Control @ 14 DAT (Annual Blue Grass; 0.50 lb AI/Acre): 58% | Control @ 14 DAT (Johnson Grass; 0.12 lb AI/Acre): 42% | Control @ 14 DAT (Johnson Grass; 0.25 lb AI/Acre): 48% | Control @ 14 DAT (Johnson Grass; 0.50 lb AI/Acre): 77% | Control @ 14 DAT (Green Foxtail; 0.12 lb AI/Acre): 87% | Control @ 14 DAT (Green Foxtail; 0.25 lb AI/Acre): 91% | Control @ 14 DAT (Green Foxtail; 0.50 lb AI/Acre): 95% | Control @ 14 DAT (Goose Grass; 0.12 lb AI/Acre): 76% | Control @ 14 DAT (Goose Grass; 0.25 lb AI/Acre): 99% | Control @ 14 DAT (Goose Grass; 0.50 lb AI/Acre): 100%
